Test results from patent US20240199555A1, “APPLICATIONS OF BIASED LIGANDS OF THE SEROTONIN 5-HT7 RECEPTOR FOR THE TREATMENT OF PAIN, MULTIPLE SCLEROSIS AND THE CONTROL OF THERMOREGULATION” (Centre National de la Recherche Scientifique, priority 2021, published 2024).

How the values were obtained:
mice = experiment: MOG-induced experimental autoimmune encephalomyelitis (EAE) model; format: in vivo; conditions: 1 mg/kg, ip, day 8 to day 18
Text: FIG. 12: Evaluation of the therapeutic potential of Serodolin in EAE model. A/Serodolin has been administrated for 10 days from day 8 after immunization. After 18 days post-immunization, myelin staining and cell infiltration have been evaluated in 3 groups of mice (non-immunized NI, Vehicle-treated mice or Serodolin-treated mice. B/Immunolabeling of astrocytes (GFAP) and microglia (Iba1) performed in all groups. Quantifications used Image J software. **p<0.01 *p<0.05.
Autoimmune experimental encephalomyelitis (EAE) model. For EAE model, the pathology was induced by subcutaneous injection of an emulsion of MOG35-55 peptide in complete Freund's adjuvant as previously described (Terry, Ifergan, & Miller, 2016). The mice were scored blindly once a day starting at Day 7 postimmunization until Day 30 according to the following scale: 0.0=no obvious changes in motor function; 0.5=tip of tail is limp; 1.0=limp tail; 1.5=limp tail and hind leg inhibition; 2.0=limp tail and weakness of hind legs or signs of head tilting; 2.5=limp tail and dragging of hind legs or signs of head tilting; 3.0=limp tail and complete paralysis of hind legs or limb tail with paralysis of one front and one hind leg; 3.5=limp tail and complete paralysis of hind legs and animal unable to right itself when placed on its side; 4.0=limb tail, complete hind leg, and partial front leg paralysis with minimal moving and feeding. Drugs were administered at the onset of clinical symptoms (Day 8) until Day 18 after immunization. Serodolin (1 mg/kg, ip) or vehicle was daily administered. Mice were given Ketamine/Xylasine anaesthesia and then intracardiacally perfused first with PBS EDTA for 20-30 min and then with PFA (paraformaldehyde) 4% for 20-30 min. Spinal cords were removed and incubated first in PFA 4% for 48-72 h and then in sucrose 30% Organ was included in TFM (Tissue freezing media) and snap frozen using isopentane and dry ice. Spinal cord were cut on 14 μm thick sections using Leica CM3050 S Research Cryostat for immunohistochemistry experiments.
The inventors considered that Serodolin could have some benefit effects on some chronic inflammatory processes, like those observed in MS. Myelin oligodendrocyte glycoprotein (MOG)-induced murine experimental autoimmune encephalomyelitis (EAE) is a widely accepted model for studying the clinical and pathological features of multiple sclerosis. After MOG induction of EAE (9 animals/group), the effect of AIC-01 injection was tested for […] (1 mg/kg, ip from day 8 to day 18 after MOG induction). Each animal was assessed by a behavioural test based on motor functions, and an EAE score was obtained. […] Histopathological characteristics performed after MOG-induction allowed to decipher Serodolin effect at molecular and cellular levels. […]

C57BL/6 mice = experiment: Spared Nerve Injury (SNI) neuropathic pain model, Von Frey; conditions: s.c.
Description: Pregabalin, vehicle or compounds solutions are subcutaneously administrated for 8 consecutive days. • (A) Mechanical response threshold after the first administration (D+10). […] Positive control animals were treated with Pregabalin (5 mg/kg, sc). Statistical differences are indicated compared to vehicle group (Two-way RM ANOVA followed by Bonferroni post-hoc test: ***p<0.001, ** p<0.01, * p<0.05). […] Positive control animals were treated with Pregabalin (5 mg/kg, sc). Statistical differences are indicated compared to vehicle group (Two-way RM ANOVA followed by Bonferroni post-hoc test: ***p<0.001, ** p<0.01, * p<0.05). […] (Two-way RM ANOVA followed by Bonferroni post-hoc test: ***p<0.001, ** p<0.01, * p<0.05)
MOA51 and Serodolin (AIC01) compounds were diluted in NDT solution (NaCl 0.9%—DMSO 20%—Tween80 5%). […] AIC01 was resuspended at 0.5 mg/mL and administrated at a ratio of 100 μl per 10 g (dose of 5 mg/kg).
Experiment starts with 8 weeks old male C57B16J mice (from Charles River). Study was performed on 40 mice (2 mice were excluded during the study due to health guidelines) divided in 4 randomized groups. • Group A: s.c. injection at 5 mg/kg of pregabalin. • Group B: s.c. injection at 0.5 mg/kg of MOA51. • Group C: s.c. injection at 5 mg/kg of Serodolin (AIC01). • Group D: s.c. injection of NDT solution (referred as Vehicle hereafter).
Compounds solutions, pregabalin and vehicle were subcutaneously administrated (100 μl/10 g) for 9 consecutive days, starting 10 days after surgery. Ligature and transection of the common peroneal and tibial distal branches of the sciatic nerve was made leaving the sural branch intact. 7 days post-surgery, a decrease of threshold response to Von Frey filaments of ipsilateral hind-paw was observed corresponding to neuropathic pain apparition (mechanical allodynia). Mechanical threshold response of mice were measured with calibrated Von Frey filaments using the up/down method. Experimenter was blind to mice treatment. Measures are performed as follow: one baseline measure before surgery, one measure at D+10, D+12, D+14, D+16 and D+18 before drug's administration, and 1 h, 2 h post-drug administration. A supplementary measure 4 h post-drug administration was performed at D+10 and D+18.
Two-way RM ANOVA (followed by Bonferroni post-hoc test) was used to analysed time course response at D+10 and D+18. Area under the curve was determined with the 1 h and 2 h post-drug administration measures to investigated tolerance of repeated administration of compounds

h5-HT7R = h5-HT7R (Homo sapiens (Human), UniProt P34969); experiment: ERK1/2 and c-SRC phosphorylation by western blot in HEK-293 cells stably expressing h5-HT7R; format: cell-based
Description: (A, B, C, D, E, F) Time course of activation of ERK1/2 after stimulation of HEK-293 cells stably expressing h5-HT7R with various 5-HT7R ligands used at 10 μM. The cells were stimulated for the indicated periods and assayed for detection of phospho ERK1/2 by western blot analysis. […] Representative blots of three independent experiments are illustrated. The histogram on the right of each panel represents the results of densitometric analyses of three independent experiments. Data are means±SEM. * p<0.05; ** p<0.01; *** p<0.001 versus non stimulated cells (NS).
HEK-293 cells stably expressing h5-HT7R were stimulated with increasing concentrations of 5-CT or Serodolin for 7 minutes. Cells were lysed, and western blot analysis was performed. Representative Western blots from three independent experiments were shown in A-C. Quantification was performed by densitometric analyses from three independent experiments. Analyzed data were plotted versus log concentration for each compounds (A; B) or as bar graph (C) on the right panel.
Time course of activation of ERK1/2 after stimulation of HEK-293 cells stably expressing h5-HT7R with JLB060, a 5-HT7R ligand used at 10 μM. The cells were stimulated for the indicated periods and assayed for detection of phospho ERK1/2 by western blot analysis.
(§1) Treated cells were washed twice with cold PBS and lysed on ice for 30 min in lysis buffer containing 50 mM Tris pH 7.5, 150 mM NaCl, 10 mM EDTA, 1% Triton X-100 and the protease inhibitor cocktail. Cell lysates were centrifuged at 10,000×g for 10 min. Supernatant was then solubilized in Laemmli buffer with 0.1% β-mercaptoethanol. Samples were resolved by electrophoresis on 10% SDS-PAGE, and transferred electrophoretically to polyvinylidene fluoride (PVDF) membranes (GE Healthcare Life Sciences). […] membranes were washed in Tris-buffered saline (TBS; pH 7.4) containing 0.1% Tween-20 (TBS-T; 0.1%) and blocked with 5% (w/v) dry milk TBS-T 0.1% for 30 min. […] Blots were probed with anti-arrestin, anti-Phospho-ERK or anti-ERK antibody (1:2000), anti Phospho-SRC, anti SRC antibody, anti-HA or anti-GFP or anti-actin antibodies. Horseradish-peroxidase-conjugated goat anti-rabbit, anti-mouse or anti-rat antibodies (1:33,000) were used as secondary antibodies. Immunoreactive bands were detected using the Dura detection kit. Protein quantification on blots was performed using Quantity One software (Biorad).
as §1, with “12%” for “10%”, “with” for “with anti-arrestin,”, “anti-Phospho-ERK (1:2000)” for “anti-Phospho-ERK”, “anti-GAPDH” for “anti-ERK”, “(1:5000). […]” for “(1:2000), anti Phospho-SRC, anti SRC antibody, anti-HA or anti-GFP or anti-actin antibodies. Horseradish-peroxidase-conjugated goat anti-rabbit, anti-mouse or anti-rat antibodies (1:33,000) were used as secondary antibodies.”
ERK phosphorylation was monitored by western blotting after treatment of cells with 10 μM of ligands at different times ranging from 2 to 60 minutes.

h5-HT7R, sequence (P34969 1-432): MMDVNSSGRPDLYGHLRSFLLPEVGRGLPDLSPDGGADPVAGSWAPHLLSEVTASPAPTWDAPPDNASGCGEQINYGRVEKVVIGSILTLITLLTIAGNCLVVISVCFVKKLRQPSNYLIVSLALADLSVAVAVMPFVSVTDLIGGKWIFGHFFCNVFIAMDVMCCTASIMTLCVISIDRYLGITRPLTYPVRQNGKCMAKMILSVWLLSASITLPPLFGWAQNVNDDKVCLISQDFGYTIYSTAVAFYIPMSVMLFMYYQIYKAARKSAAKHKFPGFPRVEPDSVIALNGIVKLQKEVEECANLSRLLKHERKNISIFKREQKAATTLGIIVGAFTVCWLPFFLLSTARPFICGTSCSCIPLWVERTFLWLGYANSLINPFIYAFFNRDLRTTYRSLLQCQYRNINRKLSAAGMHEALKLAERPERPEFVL

Q: What does the source list for `O=c1[nH]c2ccccc2n1CN1CCN(c2ccc(F)cc2)CC1` [Serodolin]?
A: EAE score / onset of symptoms (mice): tended to show a delay in the onset of symptoms; astrocytes and microglia staining (mice): significantly decreased; cell infiltration (DAPI) (mice): reduces cell infiltration; myelin staining, increase over vehicle-treated animals (mice): 65%; tolerance after repetitive administration (AUC) (C57BL/6 mice; 9 consecutive days): didn't present any tolerance effect after repetitive administration; mechanical response threshold vs vehicle (C57BL/6 mice; first (D+10) and last (D+18) administration, 1 h and 2 h): significant increase of the mechanical threshold response; induction of ERK phosphorylation (h5-HT7R; 10 μM of ligand or increasing concentrations, western blot): concentration-dependent increase of ERK phosphorylation; ERK phosphorylation at the maximal effect (h5-HT7R; 10 μM of ligand, 2 to 60 minutes): 409±34 % of control; phosphorylation of c-SRC kinase at Tyr416 (h5-HT7R; western blot, 7 minutes): induced only after activation of 5-HT7R by Serodolin
